Read-outs that look alike come from different tables or passages of the source.
How the values were obtained:
Brain-Plasma Kp = assay type: in vivo; conditions: brain and plasma
human mGlu4 = human mGlu4 (Homo sapiens (Human), UniProt Q14833); assay: mGlu4 PAM assay in human mGlu4/Gqi5 cells with ~EC20 glutamate (Hamamatsu FDSS); assay type: cell-based; conditions: ~EC20 concentration of glutamate
Method: The disclosed compounds and compositions can be evaluated for their ability to act as a potentiatior of metabotropic glutamate receptor activity, in particular mGluR4 activity, by any suitable known methodology known in the art. For example, Chinese Hamster Ovary (CHO) cells transfected with human mGluR4 or HEK cells co-transfected with rat mGluR4 and the G-protein regulated Inwardly Rectifying Potassium channel (GIRK) were plated in clear bottom assay plates for assay in a Hamamatsu FDSS Fluorometric Plate Reader. The cells were loaded with either a Ca2+-sensitive fluorescent dye or the thallium responsive dye and the plates were washed and placed into a suitable kinetic plate reader. For human mGluR4 assays, a fluorescence baseline was established for 3-5 seconds, the disclosed compounds were then added to the cells, and the response in cells was measured. Approximately two and a half minutes later, a concentration of mGluR4 orthosteric agonist (e.g. glutamate, L-AP4, or L-SOP) eliciting approximately 20% (EC20) of the maximal agonist response was added to the cells, and the response was measured. Two minutes later, a concentration of mGluR4 agonist (e.g. glutamate, L-AP4, or L-SOP) eliciting 80% (EC80) of the maximal agonist response was added to the cells, and the response was measured. For rat mGluR4/GIRK experiments, a baseline was established for approximately five seconds, disclosed compounds were added, and either an EC20 or EC80 concentration of agonist was added approximately two and one half minutes later.
The above described assay operated in two modes. In the first mode, a range of concentrations of the disclosed compounds are added to cells, followed by a single fixed concentration of agonist. If the compound acts as a potentiatior, an EC50 value for potentiation and a maximum extent of potentiation by the compound at this concentration of agonist is determined by non-linear curve fitting. If the compound acts as an antagonist, an IC50 value is determined by non-linear curve fitting. In the second mode, several fixed concentrations of the disclosed compounds are added to various wells on a plate, followed by a range in concentrations of agonist for each concentration of disclosed compound. The EC50 values for the agonist at each concentration of compound are determined by non-linear curve fitting. A decrease in the EC50 value of the agonist with increasing concentrations of the sample compound (a leftward shift of the agonist concentration-response curve) is an indication of the degree of mGluR4 potentiation at a given concentration of the sample compound. A decrease in the maximal response of the agonist with increasing concentrations of the sample compounds, with or without a rightward shift in agonist potency, is an indication of the degree of antagonism at mGluR4. The second mode also indicates whether the sample compounds also affect the maximum response to mGluR4 to agonists.

[1] = test system: haloperidol-induced catalepsy; assay: haloperidol-induced catalepsy (standard PD model); assay type: in vivo, rodent; conditions: oral doses after haloperidol; relative to control mGlu4 PAM VU506
From the text: B) Efficacy of example 131 in the standard PD model of haloperidol-induced catalepsy, relative to a control mGlu4 PAM, VU506. […] Also see a) Engers, D. W.; Gogliotti, R. D.; Cheung, Y-Y.; Salovich, J. M.; Garcia-Barrantes, P. M.; Daniels, J. S.; Morrison, R.; Jones, C. K.; Blobaum, A. L.; Macor, J. E.; Bronson, J. J.; Conn, P. J.; Lindsley, C. W.; Niswender, C. M.; Hopkins, C. R. ‘Discovery, synthesis and pre-clinical characterization of N-(3-chloro-4-fluorophenyl)-1H-pyrazolo[4,3-b]pyridin-3-amine (VU0418506), a novel positive allosteric modulator of the metabotropic glutamate receptor 4 (mGlu4)’ ACS Chem. Neurosci. 2016, 7, 1192-1200; b) Niswender, C. M.; Jones, C. K.; Bubser, M.; Gray, A. T.; Blobaum, A. L.; Engers, D. W.; Altman, M. K.; O'Brien, D. E.; Rook, J. M.; Rodriguez, A. L.; Loch, M. T.; Daniels, J. S.; Lindsley, C. W.; Hopkins, C. R.; Conn, P. J. ‘Development of VU0418506, a positive allosteric modulator that differentiates metabotropic glutamate receptor 4 (mGlu4) homomeric receptors from mGlu2/4 heteromers’ ACS Chem. Neurosci., 2016, 7, 1201-1211.

rat CNS penetration (Kp) = assay type: in vivo; conditions: brain/plasma

Sequence of human mGlu4 (Q14833 33-912): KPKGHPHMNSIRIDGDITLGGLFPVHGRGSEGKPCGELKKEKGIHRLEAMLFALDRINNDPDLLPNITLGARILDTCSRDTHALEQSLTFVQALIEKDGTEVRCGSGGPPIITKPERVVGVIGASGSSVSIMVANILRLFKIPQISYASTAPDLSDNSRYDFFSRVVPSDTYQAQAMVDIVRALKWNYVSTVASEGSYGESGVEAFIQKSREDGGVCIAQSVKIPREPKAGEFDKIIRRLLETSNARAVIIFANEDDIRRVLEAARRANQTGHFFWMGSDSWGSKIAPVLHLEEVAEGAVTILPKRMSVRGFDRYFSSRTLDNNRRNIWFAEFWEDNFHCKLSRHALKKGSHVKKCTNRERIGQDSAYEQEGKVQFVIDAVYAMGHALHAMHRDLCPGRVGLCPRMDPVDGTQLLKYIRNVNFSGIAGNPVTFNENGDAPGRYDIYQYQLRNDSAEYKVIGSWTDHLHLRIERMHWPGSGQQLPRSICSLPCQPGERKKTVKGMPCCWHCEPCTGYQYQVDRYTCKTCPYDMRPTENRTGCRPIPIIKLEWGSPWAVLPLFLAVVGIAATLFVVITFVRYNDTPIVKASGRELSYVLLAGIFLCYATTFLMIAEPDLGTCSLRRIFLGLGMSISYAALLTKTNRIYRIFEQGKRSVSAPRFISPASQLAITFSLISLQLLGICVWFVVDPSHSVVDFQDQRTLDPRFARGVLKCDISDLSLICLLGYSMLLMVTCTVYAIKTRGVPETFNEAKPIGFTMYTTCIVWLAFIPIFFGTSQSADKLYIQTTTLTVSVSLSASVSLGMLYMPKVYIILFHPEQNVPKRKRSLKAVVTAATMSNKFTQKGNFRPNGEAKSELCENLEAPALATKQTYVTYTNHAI

| Kp (Brain-Plasma Kp; rat) | EC50 (human mGlu4; read-out: hmGluR4 PAM EC50) [nM] | EC50 (human mGlu4; read-out: mGlu4 PAM EC50) [nM] | SMILES | further results |
| --- | --- | --- | --- | --- |
| 2.3 | 50.1 | – | Cn1nc(OC[C@@H]2COCCO2)c2ccc(NC(=O)c3ncccc3N)cc21 [drawing 248] | – |
| 0.72 | 86.8 | – | Cn1nc(OCC2CCOC2)c2ncc(NC(=O)c3ncccc3N)cc21 (stereo not shown) [drawing 242] | – |
| 2.47 | 27.3 | – | Cn1nc(OC[C@@H]2CCOC2)c2ccc(NC(=O)c3ncccc3N)cc21 [drawing 244] | – |
| 3.09 | 75.4 | – | Cn1nc(OCC2CCOC2)c2ccc(NC(=O)c3ncccc3N)cc21 (stereo not shown) [drawing 241] | – |
| 1.84 | 120 | – | Cn1nc(OC[C@@H]2CCOC2)c2ncc(NC(=O)c3ncccc3N)cc21 [drawing 246] | – |
| 3.35 | 266 | – | Cn1nc(OCC2CCOC2)c2ccc(NC(=O)c3cccc(F)n3)cc21 (stereo not shown) [drawing 251] | – |
| – | – | 505 | Cn1nc(OCC2CCOC2)c2ccc(NC(=O)c3ncccc3F)cc21 (stereo not shown) [Compound 97] | – |
| – | – | 277 | Cn1nc(OCC2CCOC(C)(C)C2)c2ccc(NC(=O)c3ccc(F)cn3)cc21 (stereo not shown) [Compound 106] | – |
| 1.83 | 166 | – | Cn1nc(OC[C@H]2CCOC2)c2ncc(NC(=O)c3ncccc3N)cc21 [drawing 247] | – |
| – | – | 820 | Cn1nc(OCC2CCOC2)c2ccc(NC(=O)c3cccc(Cl)n3)cc21 (stereo not shown) [Compound 99] | – |
| – | – | 75.6 | Cn1nc(OCC2COC(C)(C)C2)c2ccc(NC(=O)c3ccccn3)cc21 (stereo not shown) [Compound 101] | – |
| – | – | 801 | Cn1nc(OCC2CCOC2)c2ccc(NC(=O)c3ncc(F)cc3F)cc21 (stereo not shown) [Compound 100] | – |
| – | – | 297 | Cn1nc(OCC2COC(C)(C)C2)c2ccc(NC(=O)c3ccc(F)cn3)cc21 (stereo not shown) [Compound 103] | – |
| – | – | 142 | Cn1nc(OC2CCS(=O)(=O)CC2)c2ccc(NC(=O)c3ncccc3N)cc21 [Compound 113] | – |
| 1.51 | 394 | – | Cn1nc(OCC2CCOCC2)c2ncc(NC(=O)c3ccccn3)cc21 [drawing 243] | – |
| 1.88 | 58.7 | – | Cn1nc(OC[C@H]2COCCO2)c2ccc(NC(=O)c3ncccc3N)cc21 [drawing 249] | – |
| – | – | 991 | Cn1nc(OCC2CCOC2)c2ccc(NC(=O)c3cc(F)ccn3)cc21 (stereo not shown) [Compound 98] | – |
| – | – | 50.1 | Cn1nc(OC[C@H]2COCCO2)c2ccc(NC(=O)c3ncccc3N)cc21 [Compound 131] | reversal of haloperidol-induced catalepsy [1]: reverse catalepsy in a dose-dependent manner; Kp (rat CNS penetration (Kp)): 1.6 |
| 2.9 | 24.2 | – | Cn1nc(OC[C@H]2CCOC2)c2ccc(NC(=O)c3ncccc3N)cc21 [drawing 245] | – |
| – | – | 81.2 | Cn1nc(OCC2CCOC2)c2ccc(NC(=O)c3ccccn3)cc21 (stereo not shown) [Compound 114] | – |

Further lines, the molecule ahead of its results:

| SMILES | Kp (Brain-Plasma Kp; rat) | EC50 (human mGlu4; read-out: hmGluR4 PAM EC50) [nM] | EC50 (human mGlu4; read-out: mGlu4 PAM EC50) [nM] | further results |
| --- | --- | --- | --- | --- |
| O=C(Nc1ccc2c(OCC3CCOC3)n[nH]c2c1)c1ccccn1 (stereo not shown) | 2.09 | 360 | – | – |
| Cn1nc(OC[C@@H]2COCCO2)c2ccc(NC(=O)c3ccccn3)cc21 | 1.47 | 119 | – | – |
| Cn1nc(C(=O)NC2CC(F)(F)C2)c2ccc(NC(=O)c3ccc(F)cn3)cc21 | 1.09 | 324 | – | – |
| Cn1nc(OCC2CCOCC2)c2ccc(NC(=O)c3ccc(F)cn3)cc21 | – | 99.2 | – | Kp (Brain-Plasma Kp): 3.29 |
| O=C(Nc1ccc2c(OC[C@@H]3CCOC3)n[nH]c2c1)c1ccccn1 | 1.44 | 201 | – | – |
| Cn1nc(OC2CCOCC2F)c2ccc(Nc3n[nH]c4cccnc34)cc21 (stereo not shown) [Compound 64] | – | – | 89 | – |
| Cn1nc(OCC2CCOC2)c2ccc(Nc3n[nH]c4cccnc34)cc21 (stereo not shown) [Compound 49] | – | – | 30.5 | – |
| Cn1nc(OCCN2CCOCC2)c2ccc(Nc3n[nH]c4cccnc34)cc21 [Compound 21] | – | – | 238 | – |
| Cn1nc(OCCN2CCOCC2)c2c(Cl)cc(Nc3n[nH]c4cccnc34)cc21 [Compound 24] | – | – | 322 | – |
| Cn1nc(OC2CCS(=O)(=O)C2)c2ccc(NC(=O)c3ccccn3)cc21 (stereo not shown) [Compound 53] | – | – | 272 | – |
| Cn1nc(C(=O)NC23CC(F)(C2)C3)c2ccc(NC(=O)c3ccccn3)cc21 | 1.43 | 569 | – | – |
| COCCCOc1nn(C)c2cc(Nc3n[nH]c4cccnc34)ccc12 [Compound 30] | – | – | 172 | – |
| Cn1nc(OC2CCS(=O)(=O)CC2)c2ccc(NC(=O)c3ncccc3O)cc21 [Compound 41] | – | – | 403 | – |
| CC1CC(Oc2nn(C)c3cc(NC(=O)c4ncccc4O)ccc23)CCO1 (stereo not shown) [Compound 75] | – | – | 431 | – |
| Cn1nc(OCC2COCCO2)c2ccc(Nc3n[nH]c4cccnc34)cc21 (stereo not shown) [Compound 35] | – | – | 361 | – |
| CC1CC(Oc2nn(C)c3cc(NC(=O)c4ncccc4N)ccc23)CCO1 (stereo not shown) [Compound 74] | – | – | 431 | – |

| SMILES | Kp (Brain-Plasma Kp; rat) | EC50 (human mGlu4; read-out: hmGluR4 PAM EC50) [nM] | EC50 (human mGlu4; read-out: mGlu4 PAM EC50) [nM] | further results |
| --- | --- | --- | --- | --- |
| Cn1nc(OC2CCOCC2F)c2ccc(NC(=O)c3ncccc3N)cc21 (stereo not shown) [Compound 71] | – | – | 125 | – |
| Cn1nc(OCc2ccccn2)c2ccc(Nc3n[nH]c4cccnc34)cc21 [Compound 17] | – | – | 462 | – |
| Cn1nc(OCCN2CCOCC2)c2ccc(NC(=O)c3ncccc3N)cc21 [Compound 77] | – | – | 133 | – |
| Cn1nc(O[C@H]2CCOC2)c2ccc(Nc3n[nH]c4cccnc34)cc21 [Compound 32] | – | – | 456 | – |
| Cn1nc(OC2CC3CCC2O3)c2ccc(Nc3n[nH]c4ncccc34)cc21 (stereo not shown) [Compound 38] | – | – | 601 | – |
| Cn1nc(OCC2CCCOC2)c2ccc(NC(=O)c3ncccc3O)cc21 (stereo not shown) [Compound 87] | – | – | 100 | – |
| Cn1nc(OC2CCS(=O)(=O)CC2)c2ccc(Nc3n[nH]c4cccnc34)cc21 [Compound 29] | – | – | 214 | – |
| Cn1nc(Oc2cccc(C#N)n2)c2ccc(Nc3n[nH]c4cccnc34)cc21 [Compound 16] | – | – | 111 | – |
| Cn1nc(Oc2ncccc2C#N)c2ccc(Nc3n[nH]c4cccnc34)cc21 [Compound 15] | – | – | 184 | – |
| Cn1nc(OCC2CCOCC2)c2ncc(NC(=O)c3ccccn3)cc21 [Compound 57] | – | – | 255 | – |
| O=C(Nc1ccc2c(OC[C@H]3CCOC3)n[nH]c2c1)c1ccccn1 | 1.42 | 228 | – | – |
| COCCOc1nn(C)c2cc(Nc3n[nH]c4ncccc34)ccc12 [Compound 34] | – | – | 529 | – |
| Cn1nc(OCc2ccncc2)c2ccc(Nc3n[nH]c4cccnc34)cc21 [Compound 10] | – | – | 65.7 | – |
| Cn1nc(OCCOc2ccccc2F)c2ccc(Nc3n[nH]c4cccnc34)cc21 [Compound 19] | – | – | 483 | – |
| Cn1nc(OC2CCOC[C@H]2F)c2ccc(NC(=O)c3ccccn3)cc21 (stereo partly shown) [Compound 70] | – | – | 84.7 | – |
